Reference: patent US9926297B2, “Bicyclic AZA compounds as muscarinic M1 receptor and/or M4 receptor agonists” (Heptares Therapeutics Limited, priority 2014, dated 2018)

Assays:
[1] = target: T1, human muscarinic M1 receptor (Homo sapiens, UniProt P11229); assay: Alphascreen Surefire phospho-ERK1/2 functional assay, M1; type: cell-based; settings: for EC50 / % Emax cf. ACh, M1: CHO cells stably expressing human M1; for EC50: phospho-ERK1/2, * = variable results, read-out: pEC50 M1 (converted); for % Emax cf. ACh, M1 / Emax: relative to ACh; for Emax: CHO, read-out: % Emax cf. ACh, M1, CHO cells stably expressing human M1
T1 sequence (P11229 1-460): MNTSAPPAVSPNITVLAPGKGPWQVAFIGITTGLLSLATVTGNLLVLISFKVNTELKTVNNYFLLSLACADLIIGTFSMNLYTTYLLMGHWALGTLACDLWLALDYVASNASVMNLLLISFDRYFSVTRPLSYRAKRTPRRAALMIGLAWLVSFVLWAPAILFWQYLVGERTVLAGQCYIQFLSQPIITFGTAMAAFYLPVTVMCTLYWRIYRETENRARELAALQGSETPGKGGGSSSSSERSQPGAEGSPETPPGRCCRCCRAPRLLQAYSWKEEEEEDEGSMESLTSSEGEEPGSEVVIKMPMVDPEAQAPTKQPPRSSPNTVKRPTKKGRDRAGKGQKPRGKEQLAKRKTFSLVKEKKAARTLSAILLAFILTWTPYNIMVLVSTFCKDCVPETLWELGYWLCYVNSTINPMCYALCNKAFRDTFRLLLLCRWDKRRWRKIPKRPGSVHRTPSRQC

[2] = target: T2, human muscarinic M4 receptor (Homo sapiens, UniProt P08173); assay: Alphascreen Surefire phospho-ERK1/2 functional assay, M4; type: cell-based; settings: for EC50 / % Emax cf. ACh, M4: CHO cells stably expressing human M4; for EC50: phospho-ERK1/2, * = variable results, read-out: pEC50 M4 (converted); for % Emax cf. ACh, M4 / Emax: relative to ACh; for Emax: CHO, read-out: % Emax cf. ACh, M4, CHO cells stably expressing human M4
T2 construct: expressed in transfected cells
T2 sequence (P08173 1-479): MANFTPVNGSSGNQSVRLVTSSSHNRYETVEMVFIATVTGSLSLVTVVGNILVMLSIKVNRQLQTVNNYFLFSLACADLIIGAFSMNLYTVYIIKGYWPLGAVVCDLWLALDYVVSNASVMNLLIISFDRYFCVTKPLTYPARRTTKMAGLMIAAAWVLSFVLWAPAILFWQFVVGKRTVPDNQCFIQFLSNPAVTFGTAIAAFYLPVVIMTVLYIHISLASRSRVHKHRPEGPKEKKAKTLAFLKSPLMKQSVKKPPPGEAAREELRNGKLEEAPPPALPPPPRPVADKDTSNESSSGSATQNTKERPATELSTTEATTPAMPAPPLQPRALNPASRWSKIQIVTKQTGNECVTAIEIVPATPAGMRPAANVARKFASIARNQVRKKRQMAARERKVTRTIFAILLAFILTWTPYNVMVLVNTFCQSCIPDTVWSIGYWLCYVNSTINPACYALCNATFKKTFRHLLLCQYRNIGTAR

[3] = target: T3, human muscarinic M2 receptor (Homo sapiens, UniProt P08172); assay: Alphascreen Surefire phospho-ERK1/2 functional assay, M2; settings: for Emax: CHO, read-out: % Emax cf. ACh, M2, CHO cells stably expressing human M2
T3 sequence (P08172 1-466): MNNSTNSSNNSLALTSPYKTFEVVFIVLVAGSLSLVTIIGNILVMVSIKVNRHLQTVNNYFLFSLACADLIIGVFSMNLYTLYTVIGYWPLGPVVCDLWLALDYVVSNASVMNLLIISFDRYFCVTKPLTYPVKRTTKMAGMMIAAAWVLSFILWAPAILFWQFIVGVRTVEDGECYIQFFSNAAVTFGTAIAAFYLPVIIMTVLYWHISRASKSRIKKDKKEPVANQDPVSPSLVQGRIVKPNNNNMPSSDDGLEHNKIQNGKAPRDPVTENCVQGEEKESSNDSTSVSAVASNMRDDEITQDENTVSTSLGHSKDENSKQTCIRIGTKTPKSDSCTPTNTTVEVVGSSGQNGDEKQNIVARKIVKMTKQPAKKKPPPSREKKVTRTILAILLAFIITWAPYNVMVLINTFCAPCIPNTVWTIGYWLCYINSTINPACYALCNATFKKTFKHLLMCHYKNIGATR

[4] = target: human muscarinic M3 receptor (Homo sapiens, UniProt P20309); assay: Alphascreen Surefire phospho-ERK1/2 functional assay, M3; settings: for EC50: pEC50 M3, CHO cells stably expressing human M3, phospho-ERK1/2, * = variable results; for Emax: CHO, read-out: % Emax cf. ACh, M3, CHO cells stably expressing human M3
human muscarinic M3 receptor, sequence (P20309 whole entry): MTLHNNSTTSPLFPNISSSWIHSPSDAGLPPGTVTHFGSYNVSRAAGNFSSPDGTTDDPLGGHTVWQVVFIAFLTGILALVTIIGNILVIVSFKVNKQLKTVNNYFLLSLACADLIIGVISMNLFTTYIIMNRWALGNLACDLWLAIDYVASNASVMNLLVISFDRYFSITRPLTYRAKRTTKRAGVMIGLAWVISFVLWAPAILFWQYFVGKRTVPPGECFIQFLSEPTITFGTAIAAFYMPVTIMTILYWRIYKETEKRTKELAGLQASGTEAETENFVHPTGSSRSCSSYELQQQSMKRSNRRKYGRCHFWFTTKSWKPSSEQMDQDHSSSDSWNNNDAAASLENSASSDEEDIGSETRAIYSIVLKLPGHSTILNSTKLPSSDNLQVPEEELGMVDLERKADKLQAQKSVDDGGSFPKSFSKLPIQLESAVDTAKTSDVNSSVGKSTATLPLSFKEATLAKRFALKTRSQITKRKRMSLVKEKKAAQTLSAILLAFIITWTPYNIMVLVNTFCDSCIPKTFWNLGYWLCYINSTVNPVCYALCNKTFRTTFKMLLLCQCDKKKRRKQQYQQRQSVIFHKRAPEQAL

Structure (SMILES)	EC50 [1] [nM]	% Emax cf. ACh, M1 [1] [%]	EC50 [2] [nM]	% Emax cf. ACh, M4 [2] [%]	pEC50 M2 ([3]; CHO cells stably expressing human M2, phospho-ERK1/2, * = variable results)	% Emax cf. ACh, M2 ([3]; CHO cells stably expressing human M2, relative to ACh) [%]	% Emax cf. ACh, M3 ([4]; CHO cells stably expressing human M3, relative to ACh) [%]	EC50 [4] [nM]	Emax [1] [%]	Emax [2] [%]	EC50 [3] [nM]	Emax ([3]; relative to ACh) [%]	Emax ([4]; relative to ACh) [%]
CCOC(=O)N1CCC2(CC(N3CCC(c4cnc(OC)cc4C)CC3)C2)C1 (single isomer, unassigned) [3-6 Isomer 2, ethyl 2-[4-(6-methoxy-4-methylpyridin-3-yl)piperidin-1-yl]-6-azaspiro[3.4]octane-6-carboxylate]	> 20000		39.8					> 20000	74	58	> 20000	0	4
CCOC(=O)N1CCC2(CC(N3CCC(c4ccnc(N)n4)CC3)C2)C1 (single isomer, unassigned) [3-8 Isomer 2, ethyl 2-[4-(2-aminopyrimidin-4-yl)piperidin-1-yl]-6-azaspiro[3.4]octane-6-carboxylate]	> 20000		25.1					> 20000	19	54	> 20000	2	0
CCOC(=O)N1CCC2(CC(N3CCC(c4nccc(N)n4)CC3)C2)C1 (single isomer, unassigned) [3-9 Isomer 2, ethyl 2-[4-(4-aminopyrimidin-2-yl)piperidin-1-yl]-6-azaspiro[3.4]octane-6-carboxylate]	251		25.1					> 20000	103	96	> 20000	2	4
CCOC(=O)N1CCC2(CC(N3CCC(c4cc(C)cnc4OC)CC3)C2)C1 (single isomer, unassigned) [3-12 Isomer 2, ethyl 2-[4-(2-methoxy-5-methylpyridin-3-yl)piperidin-1-yl]-6-azaspiro[3.4]octane-6-carboxylate]	251		3.98					> 20000	34	110	> 20000	2	5
CCOC(=O)N1CCC2(CC(N3CCC(c4cccc(OC)n4)CC3)C2)C1 (single isomer, unassigned) [3-13 Isomer 2, ethyl 2-[4-(6-methoxypyridin-2-yl)piperidin-1-yl]-6-azaspiro[3.4]octane-6-carboxylate]	12.6		12.6					> 20000	97	82	> 20000	2	1
CCOC(=O)N1CCC2(CC(N3CCC(C4CCCNC4=O)CC3)C2)C1 (single isomer, unassigned) [4-1 Isomer 4, ethyl 2-(2-oxo-3,4′-bipiperidin-1′-yl)-6-azaspiro[3.4]octane-6-carboxylate]	398	58	50.1	68				> 20000			> 20000	3	5
CCOC(=O)N1CCC2(CC(N3CCC(C4C(=O)NCCC4C)CC3)C2)C1 (single isomer, unassigned) [4-3 Isomer 2, ethyl 2-(4-methyl-2-oxo-3,4′-bipiperidin-1′-yl)-6-azaspiro[3.4]octane-6-carboxylate]	158		12.6					> 20000	103	88	> 20000	9	4

Other lines, results leading:

EC50 [1] [nM]	% Emax cf. ACh, M1 [1] [%]	EC50 [2] [nM]	% Emax cf. ACh, M4 [2] [%]	pEC50 M2 ([3]; CHO cells stably expressing human M2, phospho-ERK1/2, * = variable results)	% Emax cf. ACh, M2 ([3]; CHO cells stably expressing human M2, relative to ACh) [%]	% Emax cf. ACh, M3 ([4]; CHO cells stably expressing human M3, relative to ACh) [%]	EC50 [4] [nM]	Emax [1] [%]	Emax [2] [%]	EC50 [3] [nM]	Emax ([3]; relative to ACh) [%]	Emax ([4]; relative to ACh) [%]	Structure (SMILES)
316	42	20	82	< 4.7	15	9	> 20000						CCOC(=O)N1CCC2(CC(N3CCC(N4CC(F)(F)C[C@@H]4C(C)O)CC3)C2)C1 (single isomer, unassigned) [2-109 Isomer 4]
501		31.6					> 20000	31	62	> 20000	1	0	CCOC(=O)N1CCC2(CC(N3CCC(N4CCCC4=O)CC3)C2)C1 (single isomer, unassigned) [2-111 Isomer 2, ethyl 2-[4-(2-oxopyrrolidin-1-yl)piperidin-1-yl]-6-azaspiro[3.4]octane-6-carboxylate]
6310		63.1					> 20000	99	96	> 20000	4	7	CCOC(=O)N1CCC2(CC(N3CCC(N4C(=O)CCC4(C)C)CC3)C2)C1 (single isomer, unassigned) [2-117 Isomer 2, ethyl 2-[4-(2,2-dimethyl-5-oxopyrrolidin-1-yl)piperidin-1-yl]-6-azaspiro[3.4]octane-6-carboxylate]
316		316					> 20000	114	93	> 20000	8	29	CCOC(=O)N1CCC2(CC(N3CCC(N4C(=O)OC[C@@H]4C(C)C)CC3)C2)C1 (single isomer, unassigned) [2-123 Isomer 2]
631		79.4					> 20000	45	77	> 20000	2	0	CCOC(=O)N1CCC2(CC(N3CCC(N4CCNC4=O)CC3)C2)C1 (single isomer, unassigned) [2-124 Isomer 2, ethyl 2-[4-(2-oxoimidazolidin-1-yl)piperidin-1-yl]-6-azaspiro[3.4]octane-6-carboxylate]
31.6		6.31					> 20000	97	115	> 20000	7	0	CCOC(=O)N1CCC2(CC(N3CCC(c4ccc[nH]c4=O)CC3)C2)C1 (single isomer, unassigned) [3-2 Isomer 1, ethyl 2-[4-(2-oxo-1,2-dihydropyridin-3-yl)piperidin-1-yl]-6-azaspiro[3.4]octane-6-carboxylate]
25.1		6.31					> 20000	81	106	10000	50	56	O=C(OCCF)N1CCC2(CC(N3CCC(c4ccc[nH]c4=O)CC3)C2)C1 (single isomer, unassigned) [3-3 Isomer 2, 2-fluoroethyl 2-[4-(2-oxo-1,2-dihydropyridin-3-yl)piperidin-1-yl]-6-azaspiro[3.4]octane-6-carboxylate]
> 20000		15.8					> 20000	20	80	> 20000	65	11	COc1ncccc1C1CCN(C2CC3(CCN(C(=O)OCCF)C3)C2)CC1 (single isomer, unassigned) [3-5 Isomer 2, 2-fluoroethyl 2-[4-(2-methoxypyridin-3-yl)piperidin-1-yl]-6-azaspiro[3.4]octane-6-carboxylate]
